This is an account of results in the OligoGym collection.

The data set concerns the target DGAT2. The settings on record: ASO.

“And” between values parts separate entries of the source, which are not always exact repeats. Equal entries are not always repeated. After the bases stand the sugars from the 5' end (letter, count) and the backbone: PS all phosphorothioate, else s phosphorothioate and o phosphodiester by linkage. Methylation of C is not given here. e = 2'-O-(2-methoxyethyl) (MOE); d = 2'-deoxy (DNA)

As to “GCTACTGGCATTGCTCCTCC (sugars e5 d10 e5, PS)”, the target mRNA inhibition worked out at 42% (HepG2, 2.5 µM) and 81% (HepG2, 10 µM).

Turning to “GCTAGAGGCTGAGTTCTGCT (sugars e5 d10 e5, PS)”, the target mRNA inhibition by setting is: (HepG2, 2.5 µM) 85% and 87%; (HepG2, 10 µM) 90% and 92%.

Consider “GCTATTCATTTTTCTGAGCC (sugars e5 d10 e5, PS)”, for which, where the note is “HepG2, 0.12 µM”, the target mRNA inhibition was found to be 47%.

The sequence “GCTCAGAGACTCAGCCGCAC (sugars e3 d14 e3, PS)” came in with a target mRNA inhibition (HepG2, 0.12 µM) of 69%.

As to “GCTCAGATCACTCTGCACAG (sugars e5 d10 e5, PS)”, the target mRNA inhibition (HepG2, 2.5 µM) was 77% and 81% and 82%; the target mRNA inhibition (HepG2, 10 µM) was 90% and 86% and 89%.

Take “GCTGCATCCATGTCATCAGC (sugars e2 d16 e2, PS)”: the target mRNA inhibition (HepG2, 0.12 µM) was 53%.

As to “GCTGCATCCATGTCATCAGC (sugars e5 d10 e5, PS)”, the target mRNA inhibition (HepG2, 0.12 µM) was determined as 43%.

For “GCTGTGATGACTTCCCAGGG (sugars e5 d10 e5, PS)”, the target mRNA inhibition amounted to 75% (HepG2, 2.5 µM) and 86% (HepG2, 10 µM).

Consider “GCTTTAATCCAGGATTGTCA (sugars e5 d10 e5, PS)”, for which the target mRNA inhibition runs as follows: (HepG2, 2.5 µM) 73% and 76% and 82%; (HepG2, 10 µM) 91% and 88% and 93%.

Consider “GGAAAACTTAGGCATGCTTC (sugars e5 d10 e5, PS)”, for which the target mRNA inhibition is 64% and 72% (HepG2, 2.5 µM); 90% and 87% (HepG2, 10 µM).

Consider “GGAAACTTTCCCACAGTCAG (sugars e5 d10 e5, PS)”, for which the target mRNA inhibition came to 69% (HepG2, 2.5 µM) and 94% (HepG2, 10 µM).

On to “GGAAAGGCACAGGCTTTGGG (sugars e5 d10 e5, PS)”, for which the target mRNA inhibition by setting is: (HepG2, 2.5 µM) 57% and 66%; (HepG2, 10 µM) 92% and 97%.

For “GGACAGCTGTGATGACTTCC (sugars e5 d10 e5, PS)”, the target mRNA inhibition is, setting by setting: (HepG2, 2.5 µM) 55%; (HepG2, 10 µM) 76%.

As to “GGACCCACTGGAGCACT (sugars e3 d10 e4, PS)”, the target mRNA inhibition reads like this: (HepG2, 2.5 µM) 57%; (HepG2, 10 µM) 93%.

On to “GGACCCACTGGAGCACTGAG (sugars e2 d13 e5, PS)”, for which the target mRNA inhibition is, setting by setting: (HepG2, 0.12 µM) 86%; (HepG2, 2.5 µM) 24%; (HepG2, 10 µM) 28%; (HepG2, 20 µM) 67%.

For “GGACCCACTGGAGCACTGAG (sugars e3 d14 e3, PS)”, the target mRNA inhibition reads like this: (HepG2, 0.12 µM) 82%; (HepG2, 2.5 µM) 29%; (HepG2, 10 µM) 42%; (HepG2, 20 µM) 71%.

“GGAGCTCAGAGACTCAGCCG (sugars e5 d10 e5, PS)” returned a target mRNA inhibition (HepG2, 0.12 µM) of 73%.

On to “GGAGGAGTTCTCGAATATCC (sugars e5 d10 e5, PS)”, for which the target mRNA inhibition by setting is: (HepG2, 2.5 µM) 84%; (HepG2, 10 µM) 74%.

As for “GGATGGTGATGGGCTCTCCC (sugars e5 d10 e5, PS)”, under “HepG2, 0.12 µM”, the target mRNA inhibition was 67%.

Consider “GGCAGATAACCACAGCGATA (sugars e5 d10 e5, PS)”, for which the target mRNA inhibition is, setting by setting: (HepG2, 2.5 µM) 75%; (HepG2, 10 µM) 84%.

Consider “GGCCAAGGACAGAGGTTCAA (sugars e5 d10 e5, PS)”, for which the target mRNA inhibition runs as follows: (HepG2, 2.5 µM) 60%; (HepG2, 10 µM) 87%.

For “GGCTCCGGTCAGCCTCGGCC (sugars e5 d10 e5, PS)”, the target mRNA inhibition (HepG2, 0.12 µM) came out at 0%.

For the sequence “GGCTGAGTCTGTGCTGCATC (sugars e5 d10 e5, PS)”, the target mRNA inhibition (HepG2, 2.5 µM) was 85% and 65%; the target mRNA inhibition (HepG2, 10 µM) was 81%.

As to “GGGCAAAAAGTGAATCATCT (sugars e5 d10 e5, PS)”, the target mRNA inhibition (HepG2, 2.5 µM) turned out to be 39% and the target mRNA inhibition (HepG2, 10 µM) came to 72%.

As to “GGGTCAAGGTCACTCAGCCA (sugars e5 d10 e5, PS)”, the target mRNA inhibition (HepG2, 0.12 µM) came to 33%.

In the case of “GGGTCATTTTGGAGACCACA (sugars e5 d10 e5, PS)”, the target mRNA inhibition amounted to 59% (HepG2, 2.5 µM) and 83% (HepG2, 10 µM).

The sequence “GGGTTATTGCAACCACTAGG (sugars e5 d10 e5, PS)” came in with a target mRNA inhibition (HepG2, 2.5 µM) of 74% and a target mRNA inhibition (HepG2, 10 µM) of 80%.

For the setting “HepG2, 0.12 µM”, “GGTAAGGCCGTATGCCTGGG (sugars e2 d13 e5, PS)” displayed a target mRNA inhibition of 53%.
